Laboratory results published in publication PMC8272242 (Molecules, 2021).

Assay: thermal stability during DSC measurements (FTIR-ATR and weight before and after)
Type: physicochemical
Details: across the range of temperatures used in the DSC study (solid and melt)
Method: No polymorphs or solvates have so far been reported. However, in order to confirm that no crystal phase or pseudo-polymorphic transitions occurred during solubility measurements, the sediments collected after flask-shake experiments were analyzed using DSC and FTIR-ATR techniques. The results of these measurements are summarized in supplementary materials in Figures S1 and S2. The solvate formation can be identified by the absorption band shifts on the IR spectra. With DSC thermograms, the formation of a new crystal form would be associated with polymorphic transformations or solvate degradation found prior to the melting peak. Both IR spectra and DSC thermograms recorded for sediments were similar to pure phenacetin. […] As documented in Figure 1, both spectra are nearly identical as indicated by the differential plot.
It is notable that the temperature trends are linear, and it is reasonable to expect that a change of heat capacity values associated with melting ∆Cp would adopt a linear temperature relationship.
The calibration was performed using zinc and indium standards.

In the case of `CCOc1ccc(NC(C)=O)cc1` [phenacetin, N-(4-ethoxyphenyl)acetamide], the thermal stability is reported as “stable”.
